# Results reported in ChEMBL document CHEMBL4665653, “VU6005806/AZN-00016130, an advanced M positive allosteric modulator (PAM) profiled as a potential preclinical development candidate” (Bioorg Med Chem Lett, 2019).
# How the values were obtained:
# [1] = Hepatic clearance in rat; type: ADME; settings: in vivo
# [2] = Hepatic clearance in human; type: ADME
# [3] = Fraction unbound in rat plasma; type: ADME, cell-free
# [4] = Unbound brain-to-plasma concentration ratio in Sprague-Dawley rat at 0.1 to 0.2 mg/kg, iv measured after 0.25 hrs; type: ADME, organism-based; settings: dose 0.1-0.2 mg/kg, read-out: K(p,uu,brain)
# [5] = Solubility of the compound pH 7.5; type: physicochemical; settings: buffer
# [6] = Solubility of the compound in FaSSIF; type: physicochemical
# [7] = target: Muscarinic acetylcholine receptor M4 (Rattus norvegicus, UniProt P08485); experiment: Positive allosteric modulation of rat M4 receptor
# Cytochrome P450 3A4 = Cytochrome P450 3A4 (Homo sapiens, UniProt P08684); experiment: Inhibition of CYP3A4 (unknown origin); type: ADME
# Cytochrome P450 2D6 = Cytochrome P450 2D6 (Homo sapiens, UniProt P10635); experiment: Inhibition of CYP2D6 (unknown origin); type: ADME
# Cytochrome P450 2C9 = Cytochrome P450 2C9 (Homo sapiens, UniProt P11712); experiment: Inhibition of CYP2C9 (unknown origin); type: ADME
# [8] = Volume of distribution at steady state in rat; type: ADME; settings: in vivo, read-out: Vdss
# Mus musculus = experiment: Reversal of amphetamine-induced hyperlocomotion in po dosed C57BL/6 mouse assessed as minimum effective dose pretreated for 30 mins after habituation in chamber followed by amphetamine challenge and measured after 1 hr; type: functional; settings: C57BL/6, po, 0.5 h, read-out: MED
# [9] = target: Cannabinoid receptor 1 (Homo sapiens) (UniProt P21554); experiment: Displacement of [3H]-SR141716A from human recombinant full length Cannabinoid CB1 receptor expressed in Chem-1 cells assessed as residual binding level for radioligand at 10 uM incubated for 60 mins by radiometric scintillation analysis relative to control; type: cell-based
# [10] = target: L-type calcium channel Cav1.2, dihydropyridine binding site (Rattus norvegicus, UniProt P22002); experiment: Displacement of [3H]-Nitrendipine from L-type calcium channel Cav1.2 dihydropyridine binding site in Wistar rat brain assessed as residual binding level for radioligand at 10 uM incubated for 90 mins by radiometric scintillation analysis relative to control; type: tissue-based; settings: probe [3H]-Nitrendipine, read-out: Activity
# [11] = target: Alpha-1D adrenergic receptor (Homo sapiens) (UniProt P25100); experiment: Displacement of [3H]-Prazosin from recombinant full length human adrenergic alpha 1D receptor assessed as residual binding level for radioligand at 10 uM incubated for 60 mins by radiometric scintillation analysis relative to control
# [12] = target: Alpha-1B adrenergic receptor (Homo sapiens) (UniProt P35368); experiment: Displacement of [3H]-Prazosin from human adrenergic alpha 1B receptor expressed in Chem-1 cells assessed as residual binding level for radioligand at 10 uM incubated for 60 mins by radiometric scintillation analysis relative to control; type: cell-based
# Rattus norvegicus [13] = organism: Rattus norvegicus; experiment: Displacement of [3H]GABA from GABA receptor in Wistar rat brain assessed as residual binding level for radioligand at 10 uM after 20 mins by radiometric scintillation analysis relative to control; type: tissue-based
# [14] = target: Cysteinyl leukotriene receptor 1 (Homo sapiens) (UniProt Q9Y271); experiment: Displacement of [3H]LTD4 from full length recombinant human CysLT1 Leukotriene receptor expressed in CHO-K1 cells assessed as residual binding level for radioligand at 10 uM incubated for 30 mins radiometric scintillation analysis relative to control; type: cell-based
# Rattus norvegicus [15] = organism: Rattus norvegicus; experiment: Displacement of [3H]-MDL105519 from NMDA glutamate receptor glycine binding site in Wistar rat brain assessed as residual binding level for radioligand at 10 uM incubated for 30 mins by scintillation counting analysis relative to control; type: tissue-based
# Rattus norvegicus [16] = organism: Rattus norvegicus; experiment: Displacement of [3H]-TCP from NMDA glutamate receptor phencyclidine binding site in Wistar rat brain assessed as residual binding level for radioligand at 10 uM incubated for 45 mins by scintillation counting analysis relative to control; type: tissue-based
# [17] = target: Histamine H3 receptor (Homo sapiens) (UniProt Q9Y5N1); experiment: Displacement of [3H]-N-alpha-Methylhistamine from full length recombinant human recombinant Histamine H3 receptor expressed in CHO-K1 cells assessed as residual binding level for radioligand at 10 uM incubated for 120 mins by scintillation counting analysis relative to control; type: cell-based
# [18] = target: Muscarinic acetylcholine receptor M2 (Homo sapiens) (UniProt P08172); experiment: Displacement of [3H]N-Methylscopolamine from full length human recombinant muscarinic M2 receptor expressed in CHO-K1 cells assessed as residual binding level for radioligand at 10 uM measured after 120 mins by radiometric scintillation analysis relative to control; type: cell-based
# [19] = target: Mu-type opioid receptor (Homo sapiens) (UniProt P35372); experiment: Displacement of [3H]-Diprenorphine from recombinant full length human mu opioid receptor expressed in CHO-K1 cells assessed as residual binding level for radioligand at 10 uM incubated for 60 mins by scintillation counting analysis relative to control; type: cell-based
# [20] = target: Sodium-dependent serotonin transporter (Homo sapiens) (UniProt P31645); experiment: Displacement of [3H]paroxetine from full length recombinant human SET expressed in HEK293 cells assessed as residual binding level for radioligand at 10 uM after 60 mins by radiometric scintillation analysis relative to control; type: cell-based
# Rattus norvegicus [21] = organism: Rattus norvegicus; experiment: Displacement of [3H]-Batrachotoxinin from Wistar rat sodium channel site 2 assessed as residual binding level for radioligand at 10 uM incubated for 60 mins by scintillation counting analysis relative to control; type: tissue-based; settings: Brain
# [22] = target: P2X receptor (Rattus norvegicus) (UniProt P51579+P49653+P51578+Q64663+P47824+P51577+P49654); experiment: Displacement of [3H] alpha, beta-Methylene-ATP from P2X receptor in Wistar rat urinary bladder assessed as residual binding level for radioligand at 10 uM incubated for 120 mins by liquid scintillation counting method relative to control; type: tissue-based
# [23] = target: Gamma-aminobutyric acid type B receptor subunit 1 (Homo sapiens) (UniProt Q9UBS5); experiment: Displacement of [3H]CGP-54626 from human recombinant full length GABAB1 receptor expressed in CHO-K1 cells assessed as residual binding level for radioligand at 10 uM incubated for 180 mins by scintillation counting analysis relative to control; type: cell-based
# [24] = target: Glutamate NMDA receptor (Rattus norvegicus) (UniProt P35439+Q00959+Q00960+Q00961+Q62645+Q8VHN2+Q9R1M7); experiment: Displacement of [3H]MDL 105,519 from glutamate NMDA receptor glycine binding site in Wistar rat cerebral cortical membranes assessed as residual binding level for radioligand at 10 uM incubated for 30 mins by radiometric scintillation analysis relative to control; type: tissue-based; settings: Cerebral cortex
# Muscarinic acetylcholine receptor M4, sequence (P08485 whole entry): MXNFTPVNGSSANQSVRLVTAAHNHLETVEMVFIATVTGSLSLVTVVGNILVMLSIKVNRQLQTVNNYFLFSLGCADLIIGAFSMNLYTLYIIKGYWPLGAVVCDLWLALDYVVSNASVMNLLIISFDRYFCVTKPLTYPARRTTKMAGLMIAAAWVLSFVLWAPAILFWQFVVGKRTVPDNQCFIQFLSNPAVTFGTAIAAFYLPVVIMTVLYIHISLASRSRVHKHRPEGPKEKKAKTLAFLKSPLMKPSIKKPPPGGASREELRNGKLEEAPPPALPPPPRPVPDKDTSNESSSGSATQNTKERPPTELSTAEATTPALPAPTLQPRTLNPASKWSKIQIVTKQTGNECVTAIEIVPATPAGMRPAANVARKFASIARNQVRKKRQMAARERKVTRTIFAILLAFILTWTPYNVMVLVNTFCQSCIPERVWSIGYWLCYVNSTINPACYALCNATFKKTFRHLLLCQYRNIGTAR
# L-type calcium channel Cav1.2, dihydropyridine binding site, sequence (P22002 whole entry): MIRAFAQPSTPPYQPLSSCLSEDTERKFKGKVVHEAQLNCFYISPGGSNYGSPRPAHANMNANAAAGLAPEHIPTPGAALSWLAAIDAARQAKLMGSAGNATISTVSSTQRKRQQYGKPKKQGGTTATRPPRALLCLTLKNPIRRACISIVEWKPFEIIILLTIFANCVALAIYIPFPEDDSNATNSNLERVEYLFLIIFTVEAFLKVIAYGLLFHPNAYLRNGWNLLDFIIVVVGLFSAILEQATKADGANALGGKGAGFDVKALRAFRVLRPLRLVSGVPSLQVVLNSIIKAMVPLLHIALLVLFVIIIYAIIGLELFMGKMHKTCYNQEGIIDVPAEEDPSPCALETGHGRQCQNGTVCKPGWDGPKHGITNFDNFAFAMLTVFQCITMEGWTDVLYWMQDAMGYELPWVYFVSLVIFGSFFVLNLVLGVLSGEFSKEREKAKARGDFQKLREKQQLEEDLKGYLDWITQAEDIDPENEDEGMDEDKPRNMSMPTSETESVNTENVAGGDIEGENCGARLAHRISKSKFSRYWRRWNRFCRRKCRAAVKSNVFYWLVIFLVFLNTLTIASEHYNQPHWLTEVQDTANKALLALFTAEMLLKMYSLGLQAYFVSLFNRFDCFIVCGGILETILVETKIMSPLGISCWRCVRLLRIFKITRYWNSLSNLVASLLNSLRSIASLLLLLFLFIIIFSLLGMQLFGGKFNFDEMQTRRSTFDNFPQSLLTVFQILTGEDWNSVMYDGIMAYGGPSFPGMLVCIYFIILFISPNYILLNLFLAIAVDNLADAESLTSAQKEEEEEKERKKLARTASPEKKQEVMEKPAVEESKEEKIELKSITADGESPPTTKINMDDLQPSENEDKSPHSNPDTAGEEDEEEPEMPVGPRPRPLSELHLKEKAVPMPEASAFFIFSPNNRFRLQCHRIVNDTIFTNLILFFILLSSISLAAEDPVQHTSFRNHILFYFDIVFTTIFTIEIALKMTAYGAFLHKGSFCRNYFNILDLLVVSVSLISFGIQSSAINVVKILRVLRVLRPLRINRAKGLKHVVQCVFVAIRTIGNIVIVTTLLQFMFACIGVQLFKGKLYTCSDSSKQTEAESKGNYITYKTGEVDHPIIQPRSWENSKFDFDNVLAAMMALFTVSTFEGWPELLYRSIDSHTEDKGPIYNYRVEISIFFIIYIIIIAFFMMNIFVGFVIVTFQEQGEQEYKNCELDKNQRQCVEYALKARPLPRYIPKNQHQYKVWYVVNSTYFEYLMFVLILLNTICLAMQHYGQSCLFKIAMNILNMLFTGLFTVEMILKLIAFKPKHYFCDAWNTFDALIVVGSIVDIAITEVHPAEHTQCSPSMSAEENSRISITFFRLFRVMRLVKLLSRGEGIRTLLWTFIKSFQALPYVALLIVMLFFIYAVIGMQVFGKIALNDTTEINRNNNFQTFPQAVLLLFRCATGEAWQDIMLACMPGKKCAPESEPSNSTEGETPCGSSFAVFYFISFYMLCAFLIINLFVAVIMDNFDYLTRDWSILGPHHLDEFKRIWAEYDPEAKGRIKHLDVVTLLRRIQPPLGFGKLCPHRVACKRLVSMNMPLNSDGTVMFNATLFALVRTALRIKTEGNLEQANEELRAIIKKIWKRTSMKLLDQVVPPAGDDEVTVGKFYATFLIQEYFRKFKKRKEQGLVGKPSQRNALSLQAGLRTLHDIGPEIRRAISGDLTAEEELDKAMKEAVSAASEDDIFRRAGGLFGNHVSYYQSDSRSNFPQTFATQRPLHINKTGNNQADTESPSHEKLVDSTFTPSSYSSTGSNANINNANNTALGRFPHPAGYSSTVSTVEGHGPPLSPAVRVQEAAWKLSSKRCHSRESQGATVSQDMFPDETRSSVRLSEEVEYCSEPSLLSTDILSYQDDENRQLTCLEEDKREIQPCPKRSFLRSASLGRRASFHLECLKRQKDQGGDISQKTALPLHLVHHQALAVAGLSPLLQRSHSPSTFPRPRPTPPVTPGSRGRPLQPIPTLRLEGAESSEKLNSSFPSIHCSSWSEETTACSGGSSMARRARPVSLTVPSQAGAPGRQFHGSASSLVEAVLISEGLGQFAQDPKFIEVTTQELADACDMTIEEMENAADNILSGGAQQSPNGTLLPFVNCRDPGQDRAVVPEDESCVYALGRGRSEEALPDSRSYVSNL
# Gamma-aminobutyric acid type B receptor subunit 1 (Homo sapiens), sequence (Q9UBS5 whole entry): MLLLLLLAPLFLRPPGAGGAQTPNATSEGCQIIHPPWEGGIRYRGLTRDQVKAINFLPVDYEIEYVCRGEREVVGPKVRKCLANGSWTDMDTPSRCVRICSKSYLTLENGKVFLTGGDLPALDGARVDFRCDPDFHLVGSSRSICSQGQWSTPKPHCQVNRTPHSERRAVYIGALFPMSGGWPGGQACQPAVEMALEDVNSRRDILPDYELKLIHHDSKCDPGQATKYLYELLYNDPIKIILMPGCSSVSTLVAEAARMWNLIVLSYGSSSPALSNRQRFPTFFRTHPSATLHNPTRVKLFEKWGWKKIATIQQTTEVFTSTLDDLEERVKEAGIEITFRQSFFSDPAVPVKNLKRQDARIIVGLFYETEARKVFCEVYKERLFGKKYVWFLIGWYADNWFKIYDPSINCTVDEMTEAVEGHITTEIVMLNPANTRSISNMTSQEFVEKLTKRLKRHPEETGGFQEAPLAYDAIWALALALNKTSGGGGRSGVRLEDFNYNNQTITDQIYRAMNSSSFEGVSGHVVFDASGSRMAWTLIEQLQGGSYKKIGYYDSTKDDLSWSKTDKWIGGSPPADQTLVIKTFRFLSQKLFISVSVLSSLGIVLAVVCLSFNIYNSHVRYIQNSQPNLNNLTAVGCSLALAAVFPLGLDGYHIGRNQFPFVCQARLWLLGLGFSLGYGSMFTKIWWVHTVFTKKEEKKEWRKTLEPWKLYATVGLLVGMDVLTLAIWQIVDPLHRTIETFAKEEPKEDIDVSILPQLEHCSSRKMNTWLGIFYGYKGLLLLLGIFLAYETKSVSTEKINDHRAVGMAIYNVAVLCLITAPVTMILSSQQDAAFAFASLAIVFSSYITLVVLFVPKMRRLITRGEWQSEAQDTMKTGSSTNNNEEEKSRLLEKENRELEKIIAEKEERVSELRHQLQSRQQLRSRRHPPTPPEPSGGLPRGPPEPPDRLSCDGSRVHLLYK
# Sodium-dependent serotonin transporter (Homo sapiens), sequence (P31645 whole entry, looked up): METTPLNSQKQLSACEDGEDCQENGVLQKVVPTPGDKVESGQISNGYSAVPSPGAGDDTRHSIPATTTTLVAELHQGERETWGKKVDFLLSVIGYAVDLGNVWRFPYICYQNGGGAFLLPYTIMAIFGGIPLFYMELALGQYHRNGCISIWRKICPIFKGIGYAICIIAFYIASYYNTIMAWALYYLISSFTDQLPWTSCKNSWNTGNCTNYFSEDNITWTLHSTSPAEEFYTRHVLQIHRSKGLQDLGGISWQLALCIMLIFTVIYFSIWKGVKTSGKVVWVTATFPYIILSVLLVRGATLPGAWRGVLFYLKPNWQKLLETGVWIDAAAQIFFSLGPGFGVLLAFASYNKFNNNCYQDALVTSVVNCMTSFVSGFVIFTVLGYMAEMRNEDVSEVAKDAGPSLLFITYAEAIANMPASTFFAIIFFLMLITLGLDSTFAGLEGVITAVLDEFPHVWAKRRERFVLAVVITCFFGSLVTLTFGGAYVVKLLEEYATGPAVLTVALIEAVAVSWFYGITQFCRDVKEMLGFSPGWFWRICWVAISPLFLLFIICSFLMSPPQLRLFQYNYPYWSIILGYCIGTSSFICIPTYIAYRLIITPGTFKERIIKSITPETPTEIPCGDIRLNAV
# Histamine H3 receptor (Homo sapiens), sequence (Q9Y5N1 whole entry): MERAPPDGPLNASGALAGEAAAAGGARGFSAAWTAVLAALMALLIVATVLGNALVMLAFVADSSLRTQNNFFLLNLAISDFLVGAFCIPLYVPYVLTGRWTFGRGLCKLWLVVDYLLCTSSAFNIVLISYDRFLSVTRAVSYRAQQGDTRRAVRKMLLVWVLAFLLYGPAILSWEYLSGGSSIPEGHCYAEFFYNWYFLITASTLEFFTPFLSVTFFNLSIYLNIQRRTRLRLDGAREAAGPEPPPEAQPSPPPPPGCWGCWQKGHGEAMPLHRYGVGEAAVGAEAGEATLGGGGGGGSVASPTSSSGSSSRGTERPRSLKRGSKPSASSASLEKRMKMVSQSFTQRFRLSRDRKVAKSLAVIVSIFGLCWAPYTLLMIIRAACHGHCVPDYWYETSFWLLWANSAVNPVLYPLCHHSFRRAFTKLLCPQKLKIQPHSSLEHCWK
# Cysteinyl leukotriene receptor 1 (Homo sapiens), sequence (Q9Y271 whole entry): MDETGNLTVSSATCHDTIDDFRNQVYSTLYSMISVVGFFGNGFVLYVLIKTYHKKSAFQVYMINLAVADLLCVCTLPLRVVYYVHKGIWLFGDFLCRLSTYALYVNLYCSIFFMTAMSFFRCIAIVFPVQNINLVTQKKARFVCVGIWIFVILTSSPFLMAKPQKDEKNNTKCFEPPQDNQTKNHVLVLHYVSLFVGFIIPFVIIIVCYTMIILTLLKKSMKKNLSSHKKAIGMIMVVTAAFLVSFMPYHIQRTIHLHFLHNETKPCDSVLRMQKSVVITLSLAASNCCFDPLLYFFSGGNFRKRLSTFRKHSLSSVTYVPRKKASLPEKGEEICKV
smiles,measurement,setting,value
COc1nnc2sc(C(=O)NC3CN(c4ncc(C(F)(F)F)cn4)C3)c(N)c2c1C,CLH,[1],30.5 mL/min/kg
same,CLH,[2],2.52 mL/min/kg
same,fraction unbound,[3],0.018
same,Kp uu at 0.25 h,[4],0.73
same,solubility,[5],2.9 µM
same,solubility,[6],18 µM
same,EC50,[7],28 nM
same,IC50,Cytochrome P450 3A4,> 30 µM
same,IC50,Cytochrome P450 2D6,> 30 µM
same,IC50,Cytochrome P450 2C9,> 30 µM
same,Vd,[8],1.81 L/kg
same,minimal effective dose,Mus musculus,1 mg/kg
same,Activity,[9],> 50%
same,"activity at 1.5 h, 10 µM",[10],> 50%
same,Activity,[11],> 50%
same,Activity,[12],> 50%
same,Activity,Rattus norvegicus [13],> 50%
same,Activity,[14],> 50%
same,Activity,Rattus norvegicus [15],> 50%
same,Activity,Rattus norvegicus [16],> 50%
same,Activity,[17],> 50%
same,Activity,[18],> 50%
same,Activity,[19],> 50%
same,Activity,[20],> 50%
same,Activity,Rattus norvegicus [21],> 50%
same,Activity,[22],> 50%
same,Activity,[23],> 50%
same,Activity,[24],> 50%
